Legend:
MAP3K4 (human) = MAP3K4 (human) (UniProt Q9Y6R4); test: ELISA
WEE1 (human) = WEE1 (human) (UniProt P30291); test: ELISA
BRAF (human) = BRAF (human) (UniProt P15056); test: ELISA
MOS (human) = MOS (human) (UniProt P00540); test: ELISA
TTK (human) = TTK (human) (UniProt P33981); test: ELISA
MAP3K11 (human) = MAP3K11 (human) (UniProt Q16584); test: ELISA
MAP3K1 (human) = MAP3K1 (human) (UniProt Q13233); test: ELISA
MAP3K5 (human) = MAP3K5 (human) (UniProt Q99683); test: ELISA
MAP3K12 (human) = MAP3K12 (human) (UniProt Q12852); test: ELISA
BMPR1A (human) = BMPR1A (human) (UniProt P36894); test: ELISA
MAP2K4 (human) = MAP2K4 (human) (UniProt P45985); test: ELISA
PLK4 (human) = PLK4 (human) (UniProt O00444); test: ELISA
MAP2K6 (human) = MAP2K6 (human) (UniProt P52564); test: ELISA
MAP2K1 (human) = MAP2K1 (human) (UniProt Q02750); test: ELISA; details: compound 0.2 µM
MAP3K10 (human) = MAP3K10 (human) (UniProt Q02779); test: ELISA
MAP2K5 (human) = MAP2K5 (human) (UniProt Q13163); test: ELISA
MAP3K2 (human) = MAP3K2 (human) (UniProt Q9Y2U5); test: ELISA
LIMK1 (human) = LIMK1 (human) (UniProt P53667); test: ELISA
MAP2K3 (human) = MAP2K3 (human) (UniProt P46734); test: ELISA; details: compound 0.2 µM
RAF1 (human) = RAF1 (human) (UniProt P04049); test: ELISA
MAP3K8 (human) = MAP3K8 (human) (UniProt P41279); test: ELISA
MAP2K2 (human) = MAP2K2 (human) (UniProt P36507); test: ELISA
MAP3K3 (human) = MAP3K3 (human) (UniProt Q99759); test: ELISA
STK11 (human) = STK11 (human) (UniProt Q15831); test: ELISA
MAP2K7 (human) = MAP2K7 (human) (UniProt O14733); test: ELISA
PLK2 (human) = PLK2 (human) (UniProt Q9NYY3); test: IMAP-FP
SRPK1 (human) = SRPK1 (human) (UniProt Q96SB4); test: IMAP-FP
EIF2AK3 (human) = EIF2AK3 (human) (UniProt Q9NZJ5); test: IMAP-FP
EIF2AK2 (human) = EIF2AK2 (human) (UniProt P19525); test: IMAP-FP
AKT3 (human) = AKT3 (human) (UniProt Q9Y243); test: Caliper, Mobility shift assay off-chip
PLK1 (human) = PLK1 (human) (UniProt P53350); test: Caliper, Mobility shift assay off-chip
FLT3 (human) = FLT3 (human) (UniProt P36888); test: Caliper, Mobility shift assay off-chip
MAPK8 (human) = MAPK8 (human) (UniProt P45983); test: Caliper, Mobility shift assay off-chip

MAP3K1 (human), sequence (Q13233 whole entry, looked up): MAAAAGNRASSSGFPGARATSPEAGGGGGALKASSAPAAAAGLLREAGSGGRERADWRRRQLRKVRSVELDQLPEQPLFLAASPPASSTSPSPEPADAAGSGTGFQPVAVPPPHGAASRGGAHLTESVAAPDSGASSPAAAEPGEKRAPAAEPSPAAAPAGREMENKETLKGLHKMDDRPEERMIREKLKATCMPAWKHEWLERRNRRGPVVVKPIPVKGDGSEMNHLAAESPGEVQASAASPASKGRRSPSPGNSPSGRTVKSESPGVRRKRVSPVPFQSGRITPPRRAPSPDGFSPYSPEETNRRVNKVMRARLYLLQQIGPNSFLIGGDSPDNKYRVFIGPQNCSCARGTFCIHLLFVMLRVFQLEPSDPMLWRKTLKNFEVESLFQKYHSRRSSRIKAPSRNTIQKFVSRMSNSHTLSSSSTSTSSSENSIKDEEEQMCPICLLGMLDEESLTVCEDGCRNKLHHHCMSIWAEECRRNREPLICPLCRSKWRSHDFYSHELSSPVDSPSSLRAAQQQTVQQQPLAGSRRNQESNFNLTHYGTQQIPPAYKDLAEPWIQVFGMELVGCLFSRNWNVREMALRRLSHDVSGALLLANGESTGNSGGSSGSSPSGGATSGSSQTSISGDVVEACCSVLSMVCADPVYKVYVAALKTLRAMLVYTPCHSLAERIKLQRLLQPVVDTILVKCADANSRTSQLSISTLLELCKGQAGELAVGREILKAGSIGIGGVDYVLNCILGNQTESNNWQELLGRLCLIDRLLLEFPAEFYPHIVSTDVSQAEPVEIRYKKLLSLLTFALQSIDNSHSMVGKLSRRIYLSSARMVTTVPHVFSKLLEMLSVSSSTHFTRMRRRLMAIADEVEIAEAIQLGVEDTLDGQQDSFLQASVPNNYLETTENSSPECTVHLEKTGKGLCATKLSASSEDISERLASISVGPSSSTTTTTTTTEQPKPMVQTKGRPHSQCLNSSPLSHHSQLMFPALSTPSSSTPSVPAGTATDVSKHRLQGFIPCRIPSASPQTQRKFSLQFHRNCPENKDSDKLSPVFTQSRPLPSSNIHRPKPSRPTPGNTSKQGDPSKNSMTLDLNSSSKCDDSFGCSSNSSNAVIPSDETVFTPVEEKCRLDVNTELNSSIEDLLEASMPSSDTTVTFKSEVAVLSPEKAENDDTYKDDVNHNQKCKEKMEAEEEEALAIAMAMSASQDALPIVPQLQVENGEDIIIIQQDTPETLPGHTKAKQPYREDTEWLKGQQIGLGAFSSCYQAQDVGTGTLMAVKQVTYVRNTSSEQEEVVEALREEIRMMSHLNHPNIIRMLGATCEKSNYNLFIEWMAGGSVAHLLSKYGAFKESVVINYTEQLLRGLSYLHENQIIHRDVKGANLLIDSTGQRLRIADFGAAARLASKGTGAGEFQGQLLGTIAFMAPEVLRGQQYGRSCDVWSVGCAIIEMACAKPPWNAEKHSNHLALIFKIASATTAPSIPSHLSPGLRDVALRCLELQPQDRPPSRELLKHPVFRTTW
WEE1 (human), sequence (P30291 whole entry, looked up): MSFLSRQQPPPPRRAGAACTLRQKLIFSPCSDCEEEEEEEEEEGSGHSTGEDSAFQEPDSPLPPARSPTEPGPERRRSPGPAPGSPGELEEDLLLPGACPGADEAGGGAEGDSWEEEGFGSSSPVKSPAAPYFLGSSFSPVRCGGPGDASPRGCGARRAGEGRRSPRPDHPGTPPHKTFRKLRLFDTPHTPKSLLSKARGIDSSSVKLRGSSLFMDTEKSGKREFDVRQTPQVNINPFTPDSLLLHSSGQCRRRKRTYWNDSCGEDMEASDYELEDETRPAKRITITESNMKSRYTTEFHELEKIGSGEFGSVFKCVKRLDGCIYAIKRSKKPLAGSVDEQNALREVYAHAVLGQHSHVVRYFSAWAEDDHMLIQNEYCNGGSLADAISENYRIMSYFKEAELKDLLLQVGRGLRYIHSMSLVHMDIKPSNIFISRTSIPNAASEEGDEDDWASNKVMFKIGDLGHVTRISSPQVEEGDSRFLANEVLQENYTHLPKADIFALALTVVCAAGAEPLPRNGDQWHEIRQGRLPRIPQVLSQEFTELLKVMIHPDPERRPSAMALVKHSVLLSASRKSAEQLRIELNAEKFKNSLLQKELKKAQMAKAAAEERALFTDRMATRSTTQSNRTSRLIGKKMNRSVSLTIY
EIF2AK3 (human), sequence (Q9NZJ5 whole entry, looked up): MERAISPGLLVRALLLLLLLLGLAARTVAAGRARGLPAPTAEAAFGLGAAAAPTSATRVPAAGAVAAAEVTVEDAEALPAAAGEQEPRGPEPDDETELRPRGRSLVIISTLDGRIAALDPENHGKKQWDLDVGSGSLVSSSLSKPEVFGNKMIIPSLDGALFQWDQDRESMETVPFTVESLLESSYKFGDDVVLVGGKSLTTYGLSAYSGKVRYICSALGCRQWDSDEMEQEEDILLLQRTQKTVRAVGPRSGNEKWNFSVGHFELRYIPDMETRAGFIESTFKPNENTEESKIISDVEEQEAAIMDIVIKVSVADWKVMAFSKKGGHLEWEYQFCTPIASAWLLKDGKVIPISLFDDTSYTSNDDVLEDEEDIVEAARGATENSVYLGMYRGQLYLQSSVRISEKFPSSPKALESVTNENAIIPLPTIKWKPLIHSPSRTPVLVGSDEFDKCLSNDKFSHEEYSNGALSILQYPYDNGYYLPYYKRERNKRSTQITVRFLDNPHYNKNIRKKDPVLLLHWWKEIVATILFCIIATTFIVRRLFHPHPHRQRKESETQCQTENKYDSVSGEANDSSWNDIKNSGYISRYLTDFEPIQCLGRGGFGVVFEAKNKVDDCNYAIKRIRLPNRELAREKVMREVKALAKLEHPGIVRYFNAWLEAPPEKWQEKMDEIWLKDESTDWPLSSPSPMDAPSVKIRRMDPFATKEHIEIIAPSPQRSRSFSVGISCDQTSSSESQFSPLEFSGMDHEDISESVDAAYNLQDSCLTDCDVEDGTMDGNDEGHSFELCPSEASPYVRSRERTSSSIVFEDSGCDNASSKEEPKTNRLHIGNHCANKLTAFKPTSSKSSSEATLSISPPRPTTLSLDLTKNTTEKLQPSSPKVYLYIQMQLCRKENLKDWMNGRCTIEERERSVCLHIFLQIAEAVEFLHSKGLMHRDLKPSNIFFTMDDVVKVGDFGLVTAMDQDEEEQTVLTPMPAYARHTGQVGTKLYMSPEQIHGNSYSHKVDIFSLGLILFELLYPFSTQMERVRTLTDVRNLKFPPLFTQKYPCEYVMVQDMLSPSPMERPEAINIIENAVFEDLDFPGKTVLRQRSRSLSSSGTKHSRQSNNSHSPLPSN
PLK1 (human), sequence (P53350 whole entry, looked up): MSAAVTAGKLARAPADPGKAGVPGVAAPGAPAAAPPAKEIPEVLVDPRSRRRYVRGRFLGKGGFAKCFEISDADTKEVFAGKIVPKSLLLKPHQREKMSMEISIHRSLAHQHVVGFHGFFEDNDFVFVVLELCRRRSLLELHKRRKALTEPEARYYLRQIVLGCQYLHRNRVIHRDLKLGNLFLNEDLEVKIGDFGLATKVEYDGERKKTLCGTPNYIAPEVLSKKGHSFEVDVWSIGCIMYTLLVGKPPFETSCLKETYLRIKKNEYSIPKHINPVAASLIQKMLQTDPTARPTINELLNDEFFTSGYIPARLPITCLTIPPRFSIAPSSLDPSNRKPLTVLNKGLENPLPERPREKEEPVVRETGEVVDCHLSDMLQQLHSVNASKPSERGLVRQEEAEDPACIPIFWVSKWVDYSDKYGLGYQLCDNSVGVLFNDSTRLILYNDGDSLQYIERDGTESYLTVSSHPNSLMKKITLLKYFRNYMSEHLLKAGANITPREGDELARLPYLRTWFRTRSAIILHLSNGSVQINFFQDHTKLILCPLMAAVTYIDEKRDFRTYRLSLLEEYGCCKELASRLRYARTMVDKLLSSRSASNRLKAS
MAP3K2 (human), sequence (Q9Y2U5 whole entry, looked up): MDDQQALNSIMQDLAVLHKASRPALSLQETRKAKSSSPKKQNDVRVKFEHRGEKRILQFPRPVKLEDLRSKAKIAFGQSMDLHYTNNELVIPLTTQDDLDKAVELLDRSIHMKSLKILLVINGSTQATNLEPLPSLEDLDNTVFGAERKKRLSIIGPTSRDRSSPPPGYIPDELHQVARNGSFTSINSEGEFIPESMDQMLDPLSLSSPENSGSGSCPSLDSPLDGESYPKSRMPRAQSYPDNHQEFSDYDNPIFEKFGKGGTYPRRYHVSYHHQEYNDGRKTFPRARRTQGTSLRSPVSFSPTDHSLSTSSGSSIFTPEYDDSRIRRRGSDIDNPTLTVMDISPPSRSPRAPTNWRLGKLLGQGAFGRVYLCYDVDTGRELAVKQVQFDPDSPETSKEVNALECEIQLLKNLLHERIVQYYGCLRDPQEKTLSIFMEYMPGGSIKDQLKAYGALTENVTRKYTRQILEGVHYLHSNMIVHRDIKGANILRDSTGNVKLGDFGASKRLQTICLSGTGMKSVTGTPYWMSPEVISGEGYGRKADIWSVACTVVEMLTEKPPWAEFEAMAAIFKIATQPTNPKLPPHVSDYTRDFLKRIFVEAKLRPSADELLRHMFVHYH
MAP2K2 (human), sequence (P36507 whole entry, looked up): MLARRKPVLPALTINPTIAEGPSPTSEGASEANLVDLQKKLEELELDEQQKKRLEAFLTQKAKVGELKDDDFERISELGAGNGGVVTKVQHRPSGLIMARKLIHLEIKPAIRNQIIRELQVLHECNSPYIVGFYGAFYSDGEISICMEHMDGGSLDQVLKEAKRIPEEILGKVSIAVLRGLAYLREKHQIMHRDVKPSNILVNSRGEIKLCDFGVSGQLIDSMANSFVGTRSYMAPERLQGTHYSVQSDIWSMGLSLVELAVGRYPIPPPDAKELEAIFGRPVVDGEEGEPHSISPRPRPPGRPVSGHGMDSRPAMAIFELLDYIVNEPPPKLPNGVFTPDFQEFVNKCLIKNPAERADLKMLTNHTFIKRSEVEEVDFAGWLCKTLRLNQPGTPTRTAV

Molecule `CCN(CC)CCNC(=O)c1c(C)[nH]c(/C=C2\C(=O)Nc3ccc(F)cc32)c1C` has an inhibition (MAP3K4 (human); compound 0.2 µM) of -4.9%, an inhibition (MAP3K4 (human); compound 4.0 µM) of 17.5% and an inhibition (WEE1 (human); compound 0.2 µM) of 10%. For the same molecule, the inhibition (WEE1 (human); compound 4.0 µM) was 65.3%, the inhibition (BRAF (human); compound 0.2 µM) was -51% and the inhibition (BRAF (human); compound 4.0 µM) was -60.8%. For the same molecule, the inhibition (MOS (human); compound 0.2 µM) was 2.5%, the inhibition (MOS (human); compound 4.0 µM) was 29.9% and the inhibition (TTK (human); compound 0.2 µM) was 11.5%. The inhibition (TTK (human); compound 4.0 µM) was 89.7%, the inhibition (MAP3K11 (human); compound 0.2 µM) was 30.9% and the inhibition (MAP3K11 (human); compound 4.0 µM) was 89.4%. For the same molecule, the inhibition (MAP3K1 (human); compound 0.2 µM) was 15.9%, the inhibition (MAP3K1 (human); compound 4.0 µM) was -29.8% and the inhibition (MAP3K5 (human); compound 0.2 µM) was -0.6%. It also gave an inhibition (MAP3K5 (human); compound 4.0 µM) of 60.6%, an inhibition (MAP3K12 (human); compound 0.2 µM) of 59.5% and an inhibition (MAP3K12 (human); compound 4.0 µM) of 96.5%. For the same molecule, the inhibition (BMPR1A (human); compound 0.2 µM) was -3.8%, the inhibition (BMPR1A (human); compound 4.0 µM) was -7.3% and the inhibition (MAP2K4 (human); compound 0.2 µM) was 2.8%. For the same molecule, the inhibition (MAP2K4 (human); compound 4.0 µM) was 51.9%, the inhibition (PLK4 (human); compound 0.2 µM) was 30.3% and the inhibition (PLK4 (human); compound 4.0 µM) was 82.7%. For the same molecule, the inhibition (MAP2K6 (human); compound 0.2 µM) was 21.1%, the inhibition (MAP2K6 (human); compound 4.0 µM) was 87.3% and the inhibition (MAP2K1 (human)) was 73.2%. It also gave an inhibition (MAP3K10 (human); compound 0.2 µM) of 1.2%, an inhibition (MAP3K10 (human); compound 4.0 µM) of 11% and an inhibition (MAP2K5 (human); compound 0.2 µM) of 32.7%. It also gave an inhibition (MAP2K5 (human); compound 4.0 µM) of 91.8%, an inhibition (MAP3K2 (human); compound 0.2 µM) of 52.1% and an inhibition (MAP3K2 (human); compound 4.0 µM) of 95.7%. The inhibition (LIMK1 (human); compound 0.2 µM) was -0.7%, the inhibition (LIMK1 (human); compound 4.0 µM) was 31.7% and the inhibition (MAP2K3 (human)) was -2%. It also gave an inhibition (RAF1 (human); compound 0.2 µM) of -61.4%, an inhibition (RAF1 (human); compound 4.0 µM) of -88.1% and an inhibition (MAP3K8 (human); compound 0.2 µM) of -5.3%. It also gave an inhibition (MAP3K8 (human); compound 4.0 µM) of -9.2%, an inhibition (MAP2K2 (human); compound 0.2 µM) of 70.1% and an inhibition (MAP2K2 (human); compound 4.0 µM) of 99%. For the same molecule, the inhibition (MAP3K3 (human); compound 0.2 µM) was 56.3%, the inhibition (MAP3K3 (human); compound 4.0 µM) was 95.5% and the inhibition (STK11 (human); compound 0.2 µM) was 4.3%. For the same molecule, the inhibition (STK11 (human); compound 4.0 µM) was 28.1%, the inhibition (MAP2K7 (human); compound 0.2 µM) was 2.2% and the inhibition (MAP2K7 (human); compound 4.0 µM) was -3.6%. It also gave an inhibition (PLK2 (human); compound 0.2 µM) of -4.7%, an inhibition (PLK2 (human); compound 4.0 µM) of 4.2% and an inhibition (SRPK1 (human); compound 0.2 µM) of -0.7%. The inhibition (SRPK1 (human); compound 4.0 µM) was 39.6%, the inhibition (EIF2AK3 (human); compound 0.2 µM) was -15% and the inhibition (EIF2AK3 (human); compound 4.0 µM) was -5.4%. The inhibition (EIF2AK2 (human); compound 0.2 µM) was 29.1%, the inhibition (EIF2AK2 (human); compound 4.0 µM) was 88.4% and the inhibition (AKT3 (human); compound 0.2 µM) was 2.3%. It also gave an inhibition (AKT3 (human); compound 4.0 µM) of 44.8%, an inhibition (PLK1 (human); compound 0.2 µM) of -3.4% and an inhibition (PLK1 (human); compound 4.0 µM) of 5.8%. For the same molecule, the inhibition (FLT3 (human); compound 0.2 µM) was 100%, the inhibition (FLT3 (human); compound 4.0 µM) was 102% and the inhibition (MAPK8 (human); compound 0.2 µM) was -3.9%. It also gave an inhibition (MAPK8 (human); compound 4.0 µM) of -16%.

— the kinase profiling compilation of Christmann-Franck et al. (2016)
